For the assay, the target named is T1, Cbl-B (Homo sapiens, UniProt Q13191).
T1 construct: MSD-Based Assay for Degradation of Cbl-B in THP-1 Cells; endogenous in cells; host or cells: THP-1 (title) / Jurkat (protocol text)
Put plainly: MSD-based assay for degradation of Cbl-B in THP-1 cells. The class given is cell-based. An outline of the steps:
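THP-1 cells were treated with compound for 24 h at 37 °C. Cbl-B in lysates was quantified by MSD sandwich immunoassay, with anti-Cbl-B capture antibody at 1 ug/mL and SULFO-TAG anti-rabbit detection. Maximal degradation (Dmax) was binned as A >70%, B 50–70%, C 30–50%, D <30%.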

The mark [1] stands for this setting: Cbl-B degradation, Jurkat cells seeded (heading: THP-1 cells), 24 hours incubation, MSD readout.
[2] abbreviates: Cbl-B degradation, Jurkat cells seeded (heading: THP-1 cells), 24 hours incubation, MSD readout, read-out: Dmax.

Read-outs that look alike come from different tables or passages of the source.

T1 sequence (Q13191 whole entry): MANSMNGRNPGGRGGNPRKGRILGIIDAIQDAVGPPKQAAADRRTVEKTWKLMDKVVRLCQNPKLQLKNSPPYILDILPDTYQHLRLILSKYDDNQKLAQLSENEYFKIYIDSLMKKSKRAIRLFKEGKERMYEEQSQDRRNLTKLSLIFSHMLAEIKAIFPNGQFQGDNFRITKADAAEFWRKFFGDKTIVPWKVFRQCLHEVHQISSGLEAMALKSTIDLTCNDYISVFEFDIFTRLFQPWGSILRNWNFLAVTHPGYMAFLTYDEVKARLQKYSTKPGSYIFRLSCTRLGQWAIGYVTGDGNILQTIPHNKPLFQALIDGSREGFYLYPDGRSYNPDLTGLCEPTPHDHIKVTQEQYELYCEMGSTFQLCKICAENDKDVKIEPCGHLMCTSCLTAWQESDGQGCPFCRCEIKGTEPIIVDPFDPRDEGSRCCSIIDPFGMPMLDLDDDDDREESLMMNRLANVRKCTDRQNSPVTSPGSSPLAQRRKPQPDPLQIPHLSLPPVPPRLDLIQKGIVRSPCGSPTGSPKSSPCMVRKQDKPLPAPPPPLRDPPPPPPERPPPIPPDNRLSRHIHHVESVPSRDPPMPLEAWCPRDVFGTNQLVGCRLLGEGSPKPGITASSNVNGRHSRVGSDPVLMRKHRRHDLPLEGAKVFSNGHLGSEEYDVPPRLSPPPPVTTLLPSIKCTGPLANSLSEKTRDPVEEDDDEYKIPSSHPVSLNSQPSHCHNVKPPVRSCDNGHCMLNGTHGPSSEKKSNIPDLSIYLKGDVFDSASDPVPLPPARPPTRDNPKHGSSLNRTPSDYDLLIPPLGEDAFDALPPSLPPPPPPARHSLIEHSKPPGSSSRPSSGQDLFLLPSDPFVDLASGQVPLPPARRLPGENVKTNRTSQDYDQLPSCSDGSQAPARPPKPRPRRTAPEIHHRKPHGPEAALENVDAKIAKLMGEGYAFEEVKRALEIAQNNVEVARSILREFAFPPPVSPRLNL

Take `Cn1cnnc1[C@@H](c1cccc(-n2cc3c(C(F)(F)F)cc(CN4CCC(OCCNc5cccc6c5C(=O)N(C5CCC(=O)NC5=O)C6=O)CC4)cn3c2=O)c1)C1CCC1` (stereo partly shown) [Compound 37]: under setting [1], the DC50 (in general, the midpoint of the concentration-degradation curve) was 1000 to 10000 nM. Under setting [2], the Dmax (usually the greatest extent of degradation seen) is < 30%.

`Cn1cnnc1[C@@H](c1cccc(-n2cc3c(C(F)(F)F)cc(CN4CCC(CN5CCC(CN6CCN(c7ccc8c(c7)CN(C7CCC(=O)NC7=O)C8=O)CC6)CC5)CC4)cn3c2=O)c1)C1CCC1` (stereo partly shown) [Compound 38] showed a DC50 under setting [1] of 1000 to 10000 nM. The Dmax under setting [2] was in the range of 50 to 70%.

In the case of `Cn1cnnc1CC1(c2cccc(-n3cc4c(C(F)(F)F)cc(CN5CCC(N6CCN(c7ccc8c(c7)CN(C7CCC(=O)NC7=O)C8=O)CC6)CC5)cn4c3=O)c2)COC1` (stereo not shown) [Compound 39], the 50% degradation concentration (DC50) under setting [1] was > 10000 nM. Moreover, under “THP-1”, the greatest degradation seen (Dmax) was < 30%.

`Cn1cnnc1CC1(c2cccc(-n3cc4c(C(F)(F)F)cc(CN5CCC(CN6CCC(CN7CCN(c8ccc9c(c8)CN(C8CCC(=O)NC8=O)C9=O)CC7)CC6)CC5)cn4c3=O)c2)COC1` (stereo not shown) [Compound 42]: the 50% degradation concentration (DC50) under setting [1] is > 10000 nM. Moreover, the Dmax (THP-1) is < 30%.

With `Cn1cnnc1CC1(c2cccc(-n3cc4c(C(F)(F)F)cc(CN5CCC(C(=O)N6CCC(CN7CCN(c8ccc9c(c8)CN(C8CCC(=O)NC8=O)C9=O)CC7)CC6)CC5)cn4c3=O)c2)COC1` (stereo not shown) [Compound 43], the DC50 under setting [1] was > 10000 nM. Moreover, for the setting “THP-1”, the Dmax was < 30%.

`Cn1cnnc1[C@@H](c1cccc(-n2cc3c(C(F)(F)F)cc(CN4CCC(C(=O)N5CCC(CN6CCN(c7ccc8c(c7)CN(C7CCC(=O)NC7=O)C8=O)CC6)CC5)CC4)cn3c2=O)c1)C1CCC1` (stereo partly shown) [Compound 44]: the DC50 under setting [1] was > 10000 nM. The Dmax under setting [2] lay within 30 to 50%.

Molecule `Cn1cnnc1CC1(c2cccc(-n3cc4c(C(F)(F)F)cc(CN5CC[C@@H](OCCOCc6ccc(COCCNc7cccc8c7C(=O)N(C7CCC(=O)NC7=O)C8=O)cc6)C5)cn4c3=O)c2)COC1` (stereo partly shown) [Compound 45] registered a DC50 under setting [1] of 300 to 1000 nM. In addition, the Dmax under setting [2] lay within 50 to 70%.

On to `Cn1cnnc1CC1(c2cccc(-n3cc4c(C(F)(F)F)cc(CN5CC[C@H](OCCOCc6ccc(COCCNc7cccc8c7C(=O)N(C7CCC(=O)NC7=O)C8=O)cc6)C5)cn4c3=O)c2)COC1` (stereo partly shown) [Compound 46], for which the DC50 under setting [1] was > 10000 nM. The maximal degradation (Dmax) under setting [2] was 30 to 50%.

`Cn1cnnc1[C@@H](c1cccc(-n2cc3c(C(F)(F)F)cc(CN4CCC[C@H](OCCN5CCC(CN6CCN(c7ccc8c(c7)CN([C@@H]7CCC(=O)NC7=O)C8=O)CC6)CC5)C4)cn3c2=O)c1)C1CCC1` [Compound 55] returned a DC50 under setting [1] of 1000 to 10000 nM. The greatest degradation seen (Dmax) under setting [2] was in the range of 30 to 50%.

For `Cn1cnnc1[C@@H](c1cccc(-n2cc3c(C(F)(F)F)cc(CN4CCC[C@H](OCCN5CCC(CN6CCN(c7ccc8c(c7)CN([C@H]7CCC(=O)NC7=O)C8=O)CC6)CC5)C4)cn3c2=O)c1)C1CCC1` [Compound 56], the DC50 under setting [1] was in the range of 30 to 300 nM. Also, under setting [2], the Dmax was > 70%.

For `Cn1cnnc1[C@@H](c1cccc(-n2cc3c(C(F)(F)F)cc(CN4CCC(OCCN5CCC(CN6CCN(c7ccc8c(c7)CN([C@@H]7CCC(=O)NC7=O)C8=O)CC6)CC5)CC4)cn3c2=O)c1)C1COC1` [Compound 57], under setting [1], the DC50 was 1000 to 10000 nM. In addition, the Dmax under setting [2] is 50 to 70%.

`Cn1cnnc1[C@@H](c1cccc(-n2cc3c(C(F)(F)F)cc(CN4CCC(OCCN5CCC(CN6CCN(c7ccc8c(c7)CN([C@H]7CCC(=O)NC7=O)C8=O)CC6)CC5)CC4)cn3c2=O)c1)C1COC1` [Compound 58] registered a DC50 under setting [1] of 30 to 300 nM. For the same molecule, the Dmax under setting [2] is > 70%.

As to `Cn1cnnc1[C@@H](c1cccc(-n2cc3c(C(F)(F)F)cc(CN4CC[C@@H](OCCOCc5ccc(COCCNc6cccc7c6C(=O)N(C6CCC(=O)NC6=O)C7=O)cc5)C4)cn3c2=O)c1)C1CCC1` (stereo partly shown) [Compound 59], under setting [1], the DC50 fell in the range of 300 to 1000 nM. In addition, the Dmax under setting [2] was in the range of 30 to 50%.

`Cn1cnnc1[C@@H](c1cccc(-n2cc3c(C(F)(F)F)cc(CN4CC[C@H](OCCOCc5ccc(COCCNc6cccc7c6C(=O)N(C6CCC(=O)NC6=O)C7=O)cc5)C4)cn3c2=O)c1)C1CCC1` (stereo partly shown) [Compound 60] registered a DC50 under setting [1] of 300 to 1000 nM. In addition, the Dmax under setting [2] fell in the range of 30 to 50%.

The values are drawn from patent publication US20250340552A1, “COMPOUNDS, COMPOSITIONS AND METHODS OF TREATING DISORDERS” (HOTSPOT THERAPEUTICS, INC., priority 2022, published 2025).
